Values quoted from earlier work in US20110014255A1, “PHYTOSANITARY FORMULATION GENERATING NANOPARTICLES, METHOD FOR PREPARING NANOPARTICLES AND USE THEREOF” (priority 2006, published 2011).
“And” between values parts separate entries of the source, which are not always exact repeats. Equal entries are not always repeated. Structures can show the parent of a compound that is named as a salt.

Conditions: % by weight

| miscibility in water | SMILES |
| --- | --- |
| 0.6% | CCCC(O)C(CC)CO (centres unmarked) [2-ethyl-1,3-hexanediol] |
| 0.63% | CCC(CC)CO [2-ethylbutanol] |
| 0.07% | CCCCC(CC)CO (centres unmarked) [2-ethylhexanol] |
| 4.5% | CCCCOC(=O)[C@H](C)O [(S)-n-butyl lactate] |
| 0.35% | CCCCCC(C)O (centres unmarked) [Example 2-heptanol, 2-heptanol] |
| 0.43% | CCCCCCCC(=O)N(C)C [N,N-dimethyloctanamide] |
| 0.1% | CCCCCCCCN1CCCC1=O [N-octylpyrrolidone] |
| 1% | CCCCCOC(C)=O [N-pentyl acetate] |
| 0.55% | CC(=O)c1ccccc1 [acetophenone] |
| 1.04% | COc1ccccc1 [anisole] |
| 0.001% | CC(=O)OCc1ccccc1 [benzyl acetate] |
| 0.08% | OCc1ccccc1 [benzyl alcohol] |
| 0.005% | O=C(OCc1ccccc1)c1ccccc1O [benzyl salicylate] |
| 7.1% | CCCC=O [butyraldehyde] |
| 0.02% | CCCCCCCCCCO [decanol] |
| 6.5% | CCCCOCCOCCO [diethylene glycol n-butyl ether] |
| 2.4% | COCOC [dimethoxymethane] |
| 2.5% | COC(=O)CCCCC(=O)OC [dimethyl adipate] |
| 5% | COC(=O)C(=O)OC [dimethyl oxalate] |
| 0.002% | c1ccc(Oc2ccccc2)cc1 [diphenyl ether] |
| 8% | CCOC(C)=O [ethyl acetate] |
| 2% | CC(=O)OCCC(C)C [isoamyl acetate] |
| 0.67% | CC(=O)OCC(C)C [isobutyl acetate] |
| 0.5% | CC(C)COC(=O)C(C)C [isobutyl isobutyrate] |
| 2.9% | CC(=O)OC(C)C [isopropyl acetate] |
| 0.074% and 0.07% | COC(=O)c1ccccc1O [methyl salicylate] |
| 2.3% | CCCOC(C)=O [propyl acetate] |
| 0.61% | c1ccc2ncccc2c1 [quinoline] |

| SMILES | miscibility in water |
| --- | --- |
| CC(Cl)Cl [1,1-dichloroethane] | 5.03% |
| C=CC#N [acrylonitrile] | 7.35% |
| N#Cc1ccccc1 [benzonitrile] | 0.2% |
| CCCCOC(C)=O [butyl acetate] | 2.9% |
| CCCC#N [butyronitrile] | 3.3% |
| O=C1CCCCC1 [cyclohexanone] | 2.4% and 2.3% |
| ClCCl [dichloro-methane] | 1.3% |
| CCOC(=O)c1ccccc1C(=O)OCC [diethyl phthalate] | 0.1% |
| COC(=O)c1ccccc1C(=O)OC [dimethyl phthalate] | 1.84% |
| ClCC1CO1 (centres unmarked) [epichlorohydrin] | 6.58% |
| O=Cc1ccco1 [furfuraldehyde] | 8.3% |
| CC1=CC(=O)CC(C)(C)C1 [isophorone] | 1.2% |
| CC(=O)CC(C)C [methyl isobutyl ketone] | 1.7% |
| CCCCOCCOP(=O)(OCCOCCCC)OCCOCCCC [tributoxyethyl phosphate] | 0.11% |
| CCCCC(CC)COP(=O)(OCC(CC)CCCC)OCC(CC)CCCC (centres unmarked) [tris(2-ethylhexyl)phosphate] | 0.1% |

Same assay, conditions: % by weight; listed as octyl pyrrolidone

| miscibility in water | SMILES |
| --- | --- |
| not more than 0.1% | CCCCCCCCN1CCCC1=O [N-octylpyrrolidone] |
